{"source": "patent US5681832A", "about": "“Aroylaniline compounds, pharmaceutical compositions, and methods of using same to inhibit viral activity” (priority 1995, dated 1997)", "key": {"HIV-1": {"test_system": "HIV-1", "assay": "in vitro anti-HIV screening (NCI XTT soluble-formazan assay, protection of HIV-1-infected CEM T4 lymphocytes from cytolysis)", "format": "cell-based", "from_the_text": "The aroylaniline compounds of the present invention were subjected to in vitro screening to determine their anti-HIV activity.\nThe National Cancer Institute's procedure for testing for agents active against Human Immunodeficiency Virus (HIV) (Weislow, O. W. et al., \"New soluble-formazan assay for HIV-1 cytopathic effects: application to high-flux screening of synthetic and natural products for AIDS-antiviral activity,\" J. Natl Cancer Inst., 81, 577-586 (1989)) is designed to detect agents acting at any stage of the virus reproductive cycle. The assay includes the killing of T4 lymphocytes by HIV. Pursuant to the test, small amounts of HIV are added to cells, and a complete cycle of virus reproduction is necessary to obtain the required cell killing. Agents that interact with virions, cells, or virus gene-products to interfere with viral activities will protect cells from cytolysis. The system is thus designed to detect anti-HIV activity. However, compounds that are chemically labile or are rapidly metabolized in the culture conditions may not show activity in this screen. All tests are compared with at least one positive (e.g., AZT-treated) control done at the same time under identical conditions.\n(§1) 1. Candidate agent is dissolved in dimethyl sulfoxide (unless otherwise instructed) and then diluted 1:100 in cell culture medium before preparing serial half-log10 dilutions which are then to 96-well microfilter plates. T4 lymphocytes (CEM cell line) are added, and after a brief interval HIV-1 is added to all wells, resulting in a 1:200 final dilution […]. Uninfected cells with the compound serve as a toxicity control, and infected and uninfected cells without the compound serve as basic controls.\n(§2) 2. Cultures are incubated at 37° C. in a 5% carbon dioxide atmosphere for 6 days.\n(§3) 3. The tetrazolium salt, XTT, is added to all wells, and cultures are incubated to allow formazan color development by viable cells.\n(§4) 4. Individual wells are analyzed spectrophotometrically to quantitate formazan production, and in addition are viewed microscopically for detection of viable cells and confirmation of protective activity.\n(§5) 5. Drug-tested virus-infected cells are compared with drug-treated noninfected cells and with other appropriate controls (untreated infected and untreated noninfected cells, drug-containing wells without cells, etc.) on the same plate.\n6. Data are reviewed in comparison with other tests done at the same time and a determination about activity is made.\nThe aroylaniline compounds of the present invention were tested for anti-HIV activity according to the above procedure. FIGS. 1-6 represent test results of the aroylaniline compounds of Compounds 1, 3, 13, 14, 29 and 32.\n(§6) FIGS. 1 to 6 display a plot of the log10 of the concentrations (as μg/mL or molar as shown) of the aroylaniline compounds, Compounds 1, 3, 13, 14, 29 and 32, against the measured test values expressed as a percentage of the uninfected, untreated control values. The solid line depicts the percentage of surviving HIV-infected cells treated with sample (at the indicated concentration) relative to uninfected, untreated controls. Thus, the solid line expresses the anti-HIV activity of the compound. The dashed line depicts the percentage of surviving uninfected cells treated with the compound relative to the same uninfected, untreated controls. Thus, the dashed line expresses the growth inhibitory properties of the compound. The viral cytopathic effect […] is indicated by a dotted reference line. […] Survival values of this parameter less than 50% are considered acceptable in the current protocol. Approximate values for 50% effective concentration (EC50) have been calculated for each test and are set forth for these Compounds in Tables 2-7, respectively."}, "[1]": {"test_system": "T4 lymphocytes (CEM cell line)", "assay": "toxicity control: survival of uninfected T4 lymphocytes (CEM cell line) treated with compound (growth inhibition)", "format": "cell-based", "details": "Homo sapiens, CCRF-CEM", "method": "as §1, §2, §3, §4, §5, §6"}}, "note": "pEC50, pIC50: −log10 of the molar value. Where a name gives a salt, the structure may show the parent alone.", "data": [{"smiles": "O=C(Nc1ccc(C=Cc2ccc(NC(=O)c3cc(S(=O)(=O)O)c4cccnc4c3O)cc2S(=O)(=O)O)c(S(=O)(=O)O)c1)c1cc(S(=O)(=O)O)c2cccnc2c1O", "note": "[Compound 1, 4,4'-di(8-hydroxy-5-sulfo-7-quinolinecarboxyamido)stilbene-2,2'disulfonic acid tetrasodium salt]", "values": [{"measurement": "pEC50", "setting": "HIV-1; Human immunodeficiency virus 1, CCRF-CEM, 144 h, HIV-1-infected CEM cells, 6 days, approximate values, read-out: EC50 (Molar), 50% effective concentration", "value": 5.84}, {"measurement": "inhibition at 200 µM", "setting": "HIV-1; Human immunodeficiency virus 1, CCRF-CEM, 2.00 × 10^-4 Molar, read-out: Percent of Protection", "value": -26, "unit": "%"}, {"measurement": "inhibition at 20 µM", "setting": "HIV-1; Human immunodeficiency virus 1, CCRF-CEM, 2.00 × 10^-5 Molar, read-out: Percent of Protection", "value": 107, "unit": "%"}, {"measurement": "inhibition at 2 µM", "setting": "HIV-1; Human immunodeficiency virus 1, CCRF-CEM, 2.00 × 10^-6 Molar, read-out: Percent of Protection", "value": 68.6, "unit": "%"}, {"measurement": "inhibition at 0.2 µM", "setting": "HIV-1; Human immunodeficiency virus 1, CCRF-CEM, 2.00 × 10^-7 Molar, read-out: Percent of Protection", "value": 5.09, "unit": "%"}, {"measurement": "inhibition at 63.2 µM", "setting": "HIV-1; Human immunodeficiency virus 1, CCRF-CEM, 6.32 × 10^-5 Molar, read-out: Percent of Protection", "value": 85.6, "unit": "%"}, {"measurement": "inhibition at 6.33 µM", "setting": "HIV-1; Human immunodeficiency virus 1, CCRF-CEM, 6.33 × 10^-6 Molar, read-out: Percent of Protection", "value": 121, "unit": "%"}, {"measurement": "inhibition at 0.634 µM", "setting": "HIV-1; Human immunodeficiency virus 1, CCRF-CEM, 6.34 × 10^-7 Molar, read-out: Percent of Protection", "value": 3.41, "unit": "%"}, {"measurement": "inhibition at 0.0635 µM", "setting": "HIV-1; Human immunodeficiency virus 1, CCRF-CEM, 6.35 × 10^-8 Molar, read-out: Percent of Protection", "value": -5.09, "unit": "%"}, {"measurement": "activity at 200 µM", "setting": "HIV-1; Human immunodeficiency virus 1, CEM-T4, 2.00 × 10^-4 Molar, read-out: Percent of Control, Infected", "value": 4.26, "unit": "%"}, {"measurement": "activity at 20 µM", "setting": "HIV-1; Human immunodeficiency virus 1, CEM-T4, 2.00 × 10^-5 Molar, read-out: Percent of Control, Infected", "value": 105, "unit": "%"}, {"measurement": "activity at 2 µM", "setting": "HIV-1; Human immunodeficiency virus 1, CEM-T4, 2.00 × 10^-6 Molar, read-out: Percent of Control, Infected", "value": 76.2, "unit": "%"}, {"measurement": "activity at 0.2 µM", "setting": "HIV-1; Human immunodeficiency virus 1, CEM-T4, 2.00 × 10^-7 Molar, read-out: Percent of Control, Infected", "value": 27.9, "unit": "%"}, {"measurement": "activity at 63.2 µM", "setting": "HIV-1; Human immunodeficiency virus 1, CEM-T4, 6.32 × 10^-5 Molar, read-out: Percent of Control, Infected", "value": 89.1, "unit": "%"}, {"measurement": "activity at 6.33 µM", "setting": "HIV-1; Human immunodeficiency virus 1, CEM-T4, 6.33 × 10^-6 Molar, read-out: Percent of Control, Infected", "value": 116, "unit": "%"}, {"measurement": "activity at 0.634 µM", "setting": "HIV-1; Human immunodeficiency virus 1, CEM-T4, 6.34 × 10^-7 Molar, read-out: Percent of Control, Infected", "value": 26.6, "unit": "%"}, {"measurement": "activity at 0.0635 µM", "setting": "HIV-1; Human immunodeficiency virus 1, CEM-T4, 6.35 × 10^-8 Molar, read-out: Percent of Control, Infected", "value": 20.1, "unit": "%"}, {"measurement": "TI50 (IC/EC), therapeutic index", "setting": "HIV-1; IC50/EC50", "value": "8.28 × 10^+1"}, {"measurement": "Conclusion", "setting": "HIV-1; NCI anti-HIV screen", "value": "CONFIRMED ACTIVE"}, {"measurement": "pIC50", "setting": "[1]; 144 h, uninfected CEM cells, 6 days, read-out: IC50 (Molar)", "value": 3.92}, {"measurement": "activity at 200 µM", "setting": "[1]; 2.00 × 10^-4 Molar, read-out: Percent of Control, Uninfected", "value": 6.47, "unit": "%"}, {"measurement": "activity at 20 µM", "setting": "[1]; 2.00 × 10^-5 Molar, read-out: Percent of Control, Uninfected", "value": 109, "unit": "%"}, {"measurement": "activity at 2 µM", "setting": "[1]; 2.00 × 10^-6 Molar, read-out: Percent of Control, Uninfected", "value": 106, "unit": "%"}, {"measurement": "activity at 0.2 µM", "setting": "[1]; 2.00 × 10^-7 Molar, read-out: Percent of Control, Uninfected", "value": 102, "unit": "%"}, {"measurement": "activity at 63.2 µM", "setting": "[1]; 6.32 × 10^-5 Molar, read-out: Percent of Control, Uninfected", "value": 104, "unit": "%"}, {"measurement": "activity at 6.33 µM", "setting": "[1]; 6.33 × 10^-6 Molar, read-out: Percent of Control, Uninfected", "value": 117, "unit": "%"}, {"measurement": "activity at 0.634 µM", "setting": "[1]; 6.34 × 10^-7 Molar, read-out: Percent of Control, Uninfected", "value": 105, "unit": "%"}, {"measurement": "activity at 0.0635 µM", "setting": "[1]; 6.35 × 10^-8 Molar, read-out: Percent of Control, Uninfected", "value": 97.6, "unit": "%"}]}]}
